# Laboratory results: paper PMC6843736 (Molecular Pain, 2019)
# Values joined by “and” are separate entries in the source; they are usually repeats but may differ in a detail not shown here. Equal values may be shown once. Where a name gives a salt, the structure may show the parent alone.
# Legend:
# [1] = test system: rats with trigeminal chronic constriction injury (CCI); assay: Whisker pad mechanical allodynia; assay type: in vivo, rat; settings: for attenuation of mechanical allodynia: doses as high as 1000 mg/kg; for dose dependence of mechanical threshold at peak time: 2 h after treatment (gabapentin 1 h); for dose dependence of mechanical threshold at peak time / minimal dose required to restore mechanical threshold to baseline: i.p. or p.o.; for mechanical threshold 1 h after injection: ELB00824 3 mg/kg i.p. and/or gabapentin 0.3 mg/kg i.p., one-time dose; for peak time of mechanical threshold: i.p. or p.o. treatment; for effective dose decreasing neuropathic hypersensitivity: rodent trigeminal nerve injury models, pioglitazone i.p.
# [2] = Pharmacokinetic/toxicokinetic study and BBB permeability in rats; assay type: in vivo, rat
# [3] = test system: mice with TIC injury; assay: Zero maze anxiety test in mouse chronic TIC model; assay type: in vivo; settings: six weeks, 2 h post treatment; for time spent in the closed area of the maze: ELB00824 10 mg/kg, carbamazepine 30 mg/kg
# [4] = test system: mice with TIC injury; assay: Whisker pad mechanical allodynia; assay type: in vivo, mouse; settings: for allodynia compared to vehicle, ipsilateral side, week 6 / whisker pad mechanical threshold at 2 h post injection, week 3: ELB00824 10 mg/kg i.p., carbamazepine 30 mg/kg i.p.; for time of peak effect: week 3, one-time i.p. dose
# [5] = test system: mice with TIC injury; assay: Light/dark place preference anxiety test in mouse chronic TIC model; assay type: in vivo; settings: six weeks; for latency to enter into the lighted chamber: two hours after injection
# [6] = test system: rat; settings: i.p.; cited from earlier work
# [7] = test system: rats; assay: Observation of neurobehavioral adverse effects after single treatment in rats; assay type: in vivo, rat
# [8] = target: hERG potassium channel (Homo sapiens, UniProt Q12809); assay: In vitro cardiovascular toxicity study; assay type: biochemical
# [9] = target: T1, human PPARɣ receptor (Homo sapiens, UniProt P37231); assay: PPARɣ transactivation luciferase reporter assay in HEK 293 T cells; assay type: cell-based
# T1 sequence (P37231 1-505): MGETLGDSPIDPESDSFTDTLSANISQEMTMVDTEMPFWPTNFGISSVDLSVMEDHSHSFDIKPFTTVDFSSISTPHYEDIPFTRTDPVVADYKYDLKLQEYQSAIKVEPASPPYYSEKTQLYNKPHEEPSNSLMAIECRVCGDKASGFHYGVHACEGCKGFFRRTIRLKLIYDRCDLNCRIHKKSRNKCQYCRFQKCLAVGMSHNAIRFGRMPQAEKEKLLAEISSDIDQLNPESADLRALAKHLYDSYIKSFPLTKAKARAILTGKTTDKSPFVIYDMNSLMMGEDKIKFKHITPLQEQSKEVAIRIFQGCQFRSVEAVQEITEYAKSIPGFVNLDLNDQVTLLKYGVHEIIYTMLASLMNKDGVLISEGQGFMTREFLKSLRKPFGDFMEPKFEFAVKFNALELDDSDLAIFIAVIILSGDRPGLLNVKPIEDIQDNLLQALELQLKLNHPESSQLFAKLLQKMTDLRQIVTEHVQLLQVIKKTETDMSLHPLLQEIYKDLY
# [10] = test system: mouse bone marrow erythroblast; assay: Genotoxicity study, micronucleus test; assay type: in vivo; settings: up to highest concentration 500 mg/kg, intraperitoneal
# [11] = test system: Sprague-Dawley rats; assay: Preliminary 14-day repeat dose toxicity study in rats; assay type: in vivo, rat
# [12] = male, Sprague-Dawley, rat, plasma, ip, 10 mg/kg
# [13] = rat brain, 10 mg/kg i.p., 10 mg/kg
# [14] = Sprague-Dawley, rat, plasma, po, 10 mg/kg
# [15] = from AUC in μM·h, rat, 10 mg/kg i.p.
# [16] = from AUC in μM·h, rat, 10 mg/kg i.p., 10 mg/kg
# [17] = from AUC in μg·h/mL, rat, 10 mg/kg i.p.
# [18] = from Cmax in μM, rat, 10 mg/kg i.p.
# [19] = from Cmax in μM, rat, 10 mg/kg i.p., 10 mg/kg
# [20] = from Cmax in μg/mL, rat, 10 mg/kg i.p.
# Chain of hERG potassium channel (Q12809 whole entry): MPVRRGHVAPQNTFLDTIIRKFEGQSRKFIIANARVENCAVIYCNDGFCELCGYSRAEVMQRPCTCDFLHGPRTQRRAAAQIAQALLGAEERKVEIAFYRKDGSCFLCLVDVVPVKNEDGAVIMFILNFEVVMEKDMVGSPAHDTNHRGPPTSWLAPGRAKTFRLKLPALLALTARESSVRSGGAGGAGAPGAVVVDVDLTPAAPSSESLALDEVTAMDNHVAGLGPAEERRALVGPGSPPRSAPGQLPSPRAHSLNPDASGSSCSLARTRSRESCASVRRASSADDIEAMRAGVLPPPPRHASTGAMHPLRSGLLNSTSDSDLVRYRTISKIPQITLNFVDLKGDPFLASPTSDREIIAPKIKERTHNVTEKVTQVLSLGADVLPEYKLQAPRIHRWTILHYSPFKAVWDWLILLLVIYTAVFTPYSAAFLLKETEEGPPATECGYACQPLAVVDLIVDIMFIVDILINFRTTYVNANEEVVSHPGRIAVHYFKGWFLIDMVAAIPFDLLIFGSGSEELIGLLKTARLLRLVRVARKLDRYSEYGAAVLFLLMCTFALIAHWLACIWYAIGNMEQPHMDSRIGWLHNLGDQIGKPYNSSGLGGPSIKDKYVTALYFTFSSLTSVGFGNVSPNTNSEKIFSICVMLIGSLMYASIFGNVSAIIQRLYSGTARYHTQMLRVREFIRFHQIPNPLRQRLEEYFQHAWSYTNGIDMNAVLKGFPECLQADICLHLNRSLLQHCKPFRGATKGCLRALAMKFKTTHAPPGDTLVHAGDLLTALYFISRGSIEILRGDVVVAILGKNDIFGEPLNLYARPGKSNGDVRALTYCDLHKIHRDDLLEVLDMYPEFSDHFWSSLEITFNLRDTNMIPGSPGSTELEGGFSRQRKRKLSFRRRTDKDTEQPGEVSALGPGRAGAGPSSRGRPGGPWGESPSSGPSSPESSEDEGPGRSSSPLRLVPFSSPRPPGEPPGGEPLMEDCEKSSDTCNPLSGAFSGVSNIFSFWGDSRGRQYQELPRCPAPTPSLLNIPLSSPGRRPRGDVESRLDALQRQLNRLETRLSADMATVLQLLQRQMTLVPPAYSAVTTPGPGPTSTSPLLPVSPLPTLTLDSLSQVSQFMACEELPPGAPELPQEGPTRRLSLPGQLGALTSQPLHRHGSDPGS
smiles,measurement,setting,value
"CN(CCOc1ccc(CC2SC(=O)NC2=O)cc1)c1ccccn1 (stereo not shown) [Rosiglitazone, rosiglitazone, reference compound]",attenuation of mechanical allodynia,[1],did not attenuate mechanical allodynia
same,AUC(0-t),[2]; [12],22800 ng·h/mL and 63.7 µM·h
same,Cmax,[2]; [12],4500 ng/mL and 12.6 µM
same,Brain Cmax,[2]; [13],0.50 ± 0.06 μg/mL and 1.41 ± 0.27 μM
"CC(C)Cc1ccc(C(C)C(=O)O)cc1 (stereo not shown) [ibuprofen, reference compound]",attenuation of mechanical allodynia,[1],neither acetaminophen nor ibuprofen attenuated mechanical allodynia
"NCC1(CC(=O)O)CCCCC1 [gabapentin, reference compound]",time at which threshold was reduced to previous allodynic levels,[1]; 1 mg/kg single i.p. injection,2 h
same,dose dependence of mechanical threshold at peak time,[1],dose-dependently increased the mechanical threshold
same,mechanical threshold 1 h after injection,[1],4.9 ± 1.2 g
same,peak time of mechanical threshold,[1],1 h
"NC(=O)N1c2ccccc2C=Cc2ccccc21 [carbamazepine, reference compound]",latency to move to the closed area,[3],significantly increased latency
same,zone transitions,[3]; vs vehicle,significantly more
same,time spent in the closed area of the maze,[3],did not show significant differences
same,"allodynia compared to vehicle, ipsilateral side, week 6",[4],significantly improved allodynia
same,"whisker pad mechanical threshold at 2 h post injection, week 3",[4],1.4 ± 0.2 g
same,time of peak effect,[4],2 h
same,latency to enter into the lighted chamber,[5],decreased latency
"O=C(Nc1ccccc1)c1cc([N+](=O)[O-])ccc1Cl [GW9662, reference compound]",change of mechanical threshold,"[1]; 10–30 mg/kg i.p. alone, 1 to 4 h after injection",did not change mechanical threshold
"CC(=O)Nc1ccc(O)cc1 [acetaminophen, reference compound]",attenuation of mechanical allodynia,[1],neither acetaminophen nor ibuprofen attenuated mechanical allodynia
"CCc1ccc(CCOc2ccc(CC3SC(=O)NC3=O)cc2)nc1 (stereo not shown) [Pioglitazone, pioglitazone hydrochloride, reference compound]",rat LD50,[6],558 to 587 mg/kg
same,toxic signs and symptoms,"[7]; 300 mg/kg i.p. or p.o., most rats, beginning one day after treatment",showed toxic signs and symptoms
same,dose dependence of mechanical threshold at peak time,[1],dose-dependently increased the mechanical threshold
same,minimal dose required to restore mechanical threshold to baseline,[1],1000 mg/kg
same,peak time of mechanical threshold,[1],2 h
same,effective dose decreasing neuropathic hypersensitivity,[1],1000 mg/kg
same,Tmax,"[2]; male, Sprague-Dawley, rat, brain, ip, 10 mg/kg",1 h
same,AUC(0-t),[2]; [12],34500 ng·h/mL and 87.7 µM·h
same,Cmax,[2]; [12],9770 ng/mL and 24.9 µM
same,Brain Cmax,[2]; [13],0.68 ± 0.14 μg/mL and 1.73 ± 0.22 μM
"CCc1ccc(CC/C=C/c2ccc3c(c2)C(=O)CC3)cc1 [ELB00824, (E)-6–(4-(4-ethylphenyl)but-1-en-1-yl)-2,3-dihydro-1H-inden-1-one]",IC50,[8],> 30 µM
same,"maximal activities (% control), PPARɣ activation",[9],45 ± 4%
same,latency to move to the closed area,[3],11.6 ± 3.9 s
same,time spent in the closed area of the maze,[3],103 ± 21 s
same,observable neurobehavioral adverse effects,"[7]; doses of up to 1000 mg/kg i.p. or p.o., one week observation",not discernable
same,"allodynia compared to vehicle, contralateral side, week 6",[4]; 10 mg/kg i.p.,significantly improved allodynia
same,"mechanical threshold relative to carbamazepine, week 3",[4]; 2 h post injection,4.3 fold
same,"allodynia compared to vehicle, ipsilateral side, week 6",[4],significantly improved allodynia
same,"whisker pad mechanical threshold at 2 h post injection, week 3",[4],6 ± 0.0 g
same,time of peak effect,[4],2 h
same,chromosome damage in mouse bone marrow erythroblast,[10],did not induce a significant increase of chromosome damage
same,mechanical threshold at 1.5 h,"[1]; 2.5 mg topical (7% cream, 50 mg/cm^2)",8.9 ± 1.5 g
same,mechanical threshold at 1.5 h,"[1]; 5 mg topical (7% cream, 100 mg/cm^2)",19.7 ± 3.1 g
same,mechanical threshold at 3 h after treatment,[1]; 10 mg/kg i.p.,3.5 ± 0.9 g
same,ipsilateral whisker pad mechanical threshold,"[1]; 10 mg/kg i.p., 1 h, 5-14 days post-CCI",11.4 ± 2.2 g
same,ipsilateral whisker pad mechanical threshold (peak),"[1]; 10 mg/kg i.p., 2 h, ELB00824 only",14.9 ± 2.5 g
same,mechanical threshold at 3 h after treatment,[1]; 10 mg/kg p.o.,2.8 ± 0.5 g
same,dose dependence of mechanical threshold at peak time,[1],dose-dependently increased the mechanical threshold
same,mechanical threshold 1 h after injection,[1],2.5 ± 0.3 g
same,onset of symptom relief,[1]; higher dose topical,0.5 h
same,minimal dose required to restore mechanical threshold to baseline,[1],10 mg/kg
same,peak time of mechanical threshold,[1],2 h
same,effective dose decreasing neuropathic hypersensitivity,[1],10 mg/kg
same,onset of symptom relief,"[1]; systematic treatment, either i.p. or p.o., 10 mg/kg",1 h
same,mechanical threshold at 3 h after treatment,[1]; topical treatment,8.9 ± 1.1 g
same,Tmax,"[2]; Sprague-Dawley, rat, brain, po, 10 mg/kg",3 h
same,AUC(0-t),[2]; [14],3030 ng·h/mL
same,Cmax,[2]; [14],350 ng/mL
same,Tmax,[2]; [14],1 h
same,Plasma AUC0–24h ratio ELB00824/Pioglitazone,[2]; [15],0.3
same,Plasma AUC0–24h ratio ELB00824/Rosiglitazone,[2]; [15],0.4
same,Brain AUC0–24h ratio ELB00824/Pioglitazone,[2]; [16],15
same,Brain AUC0–24h ratio ELB00824/Rosiglitazone,[2]; [16],21
same,Brain AUC0–24h ratio ELB00824/Pioglitazone,[2]; [17],11
same,Brain AUC0–24h ratio ELB00824/Rosiglitazone,[2]; [17],17
same,Plasma AUC0–24h ratio ELB00824/Pioglitazone,[2]; [17],0.2
same,Plasma AUC0–24h ratio ELB00824/Rosiglitazone,[2]; [17],0.3
same,Plasma Cmax ratio ELB00824/Pioglitazone,[2]; [18],0.2
same,Plasma Cmax ratio ELB00824/Rosiglitazone,[2]; [18],0.3
same,Brain Cmax ratio ELB00824/Pioglitazone,[2]; [19],5.4
same,Brain Cmax ratio ELB00824/Rosiglitazone,[2]; [19],6.7
same,Brain Cmax ratio ELB00824/Pioglitazone,[2]; [20],4.0
same,Brain Cmax ratio ELB00824/Rosiglitazone,[2]; [20],5.5
same,Plasma Cmax ratio ELB00824/Pioglitazone,[2]; [20],0.1
same,Plasma Cmax ratio ELB00824/Rosiglitazone,[2]; [20],0.2
same,concentration at 1 h,"[2]; male, Sprague-Dawley, rat, brain, po, 10 mg/kg",1160 ng/mL and 4.01 µM
same,concentration at 1 h,"[2]; male, Sprague-Dawley, rat, brain, po, 30 mg/kg",4110 ng/mL and 14.2 µM
same,concentration at 1 h,"[2]; male, Sprague-Dawley, rat, brain, po, 120 mg/kg",7570 ng/mL and 26.1 µM
same,concentration at 1 h,"[2]; male, Sprague-Dawley, rat, brain, po, 450 mg/kg",11000 ng/mL and 38 µM
same,Kp,"[2]; male, Sprague-Dawley, rat, brain/plasma, ip, 10 mg/kg",5.13
same,AUC(0-t),[2]; [12],6550 ng·h/mL and 22.6 µM·h
same,Cmax,[2]; [12],1120 ng/mL and 3.85 µM
same,Tmax,[2]; [12],0.5 h
same,concentration at 1 h,"[2]; male, Sprague-Dawley, rat, plasma, po, 10 mg/kg",270 ng/mL and 940 nM
same,concentration at 1 h,"[2]; male, Sprague-Dawley, rat, plasma, po, 30 mg/kg",820 ng/mL and 2.81 µM
same,concentration at 1 h,"[2]; male, Sprague-Dawley, rat, plasma, po, 120 mg/kg",1510 ng/mL and 5.2 µM
same,concentration at 1 h,"[2]; male, Sprague-Dawley, rat, plasma, po, 450 mg/kg",2200 ng/mL and 7.57 µM
same,Brain AUC0–24h,"[2]; rat brain, 10 mg/kg p.o.",10370 ng·h/mL
same,Brain Cmax,"[2]; rat brain, 10 mg/kg p.o.",1.82 µg/mL
same,plasma Cmax and AUC0–24h relative to those of pioglitazone or rosiglitazone,"[2]; rat plasma, 10 mg/kg i.p.",less than 0.3 fold
same,relative brain bioavailability (AUC0–24h) of oral versus i.p. injection,"[2]; rat, 10 mg/kg",31%
same,relative plasma bioavailability (AUC0–24h) of oral versus i.p. injection,"[2]; rat, 10 mg/kg",46%
same,"hematological, blood coagulation and serum biochemistry parameters (55 parameters) compared with controls","[11]; day 15, male and female",No significant changes
same,hemoglobin and hematocrit values vs control,"[11]; male 450 mg/kg group, day 15",slightly lower hemoglobin and hematocrit values
same,occupancy time and number of times that rearing occurred,[5]; compared with carbamazepine,less robust anti-anxiety behaviors
same,latency to enter into the lighted chamber,[5],10 ± 12 s
